Assay results taken from patent US20200085047A1, “Use of an Acyclic Picolinamide Compound as a Fungicide for Control of Phytopathogenic Fungi in Vegetables” (Dow AgroSciences LLC, priority 2017, published 2020).

What was measured:
Format in all cases: in vivo
Sclerotinia sclerotiorum = test: Field assessment of Sclerotinia sclerotiorum (SCLESC) on lettuce, 2 day protectant; settings: 5% EC + Trycol
Description: Field Assessment of Sclerotinia sclerotiorum (SCLESC) on Lettuce:
A fungicidal treatment containing a 5% EC formulation of compound I plus an adjuvant (Trycol, 50% w/w at 0.2% v/v), was sprayed on head lettuce plants (LACSC) twice, the first application at the heading stage 36 days after planting, and the second application 7 days later. Formulations of compound I were applied at rates of 50, 100, and 150 grams of active ingredient per hectare (g ai/ha). The experimental plots were inoculated with sclerotinia rot pathogen 2 days after the first application. The treatment was part of an experimental trial designed as a randomized complete block with four replications and a plot of approximately 2×1 m, with formulations of compound I being applied at water volume of 800 L/ha.
Disease infection percentage was calculated by the equation (stem lesion lengths)/(total stem lengths)×100% per plant (6 plants per plot randomly). Sclerotinia rot infection was assessed four times, 7 days after application A (DAAA) plus 7, 14 and 21 DAAB. Area under the disease progress curve (AUDPC) was calculated for each plot using the sets of recorded visual infection data. Relative AUDPC (% control based on AUDPC) was calculated as percent of the nontreated control.

Alternaria solani = test: Field assessment of Alternaria solani (ALTESO) on tomato, trial 2 (natural disease pressure); settings: for Percent disease control on tomato leaves, Trial 2, 5% EC: 5% EC + Agnique BP420; for Percent disease control on tomato leaves, Trial 2, 10% SC: 10% SC + Agnique BP420
Description: Field Assessment of Alternaria solani (ALTESO) on Tomato:
In a replicated trial, a fungicidal treatment containing Compound I, applied in both a 5% EC and 10% SC formulation and tank mixed with an adjuvant (Agnique BP420, 50% w/w at 0.3% v/v), was sprayed on tomato plants (LYPES, Taylor variety) at approximately 21 days after planting. Formulations of compound I was applied at rates of 100 and 200 grams of active ingredient per hectare (g ai/ha). The trial was based on six foliar applications at 10 day intervals under natural disease pressure of tomato early blight. The treatment was part of an experimental trial designed as a randomized complete block with four replications and a plot of approximately 2×4 m. Formulations of compound I were applied at water volume of 800 L/ha, using a backpack plot sprayer (BKPCKENG, Solo 443; HCSOLID—Albutz ATR80 Orange Nozzle) and pressurized at 300 kPa. Disease severity (percent control) was recorded as percent visual leaf infection per plot and was assessed at 10 days after the last application.

Colletotrichum coccodes = test: Field assessment of Colletotrichum coccodes (COLLCA) in tomato; settings: SC
Description: Field Assessment of Colletotrichum Coccodes (COLLCA) in Tomato:
A fungicidal treatment containing Compound I, applied in an SC formulation (MSO built-in) and tank mixed with an adjuvant (Agnique BP-420, 50% w/w at 0.2% v/v or Adsee C80W 80%), was sprayed on tomato plants (LYPES, Roma VS Saladette type variety) at growth stage 12 in vegetative growth at rates of 50, 75, 100, and 150 grams of active ingredient per hectare (g ai/ha). The experimental plots were run with natural infestation of the anthracnose pathogen and supplemented with additional inoculum about one day after the 1st application. The treatment was part of an experimental trial designed as a randomized complete block (RCB) with four replications and a plot of approximately 6.67×30 ft. Compound I was applied at water volume of 40 gal/acre, using a backpack sprayer (carbon dioxide (CO2), 8004VS FF nozzles) and pressurized at 38 psi.
Percent leaf severity was assessed three times during the trial (0-23 days after application 1). Area under the disease progress curve (AUDPC) was calculated for each plot using the recorded leaf severity data. Relative AUDPC (% control based on AUDPC) was calculated as percent of the untreated control.

Alternaria brassicicola = test: Field assessment of Alternaria brassicicola (ALTEBI) on cabbage, 2 day protectant; settings: 5% EC + Trycol
Description: Field assessment of Alternaria brassicicola (ALTEBI) on cabbage:
A fungicidal treatment containing Compound I, applied in a 5% EC formulation and tank mixed with an adjuvant (Trycol, 50% w/w at 0.2% v/v), was sprayed three times on head cabbage plants (BRSOL) with the first application at 10-12 LF stage of cabbage. The following applications were done at 7 day intervals will all applications being sprayed at rates of 50, 100, and 150 grams of active ingredient per hectare (g ai/ha). The experimental plots were inoculated with black leaf spot pathogen 2 days after the first application. The treatment was part of an experimental trial designed as a randomized complete block with four replications and a plot of approximately 2×1 m, with compound I being applied at water volume of 800 L/ha.
Disease severity was assessed as the percent diseased area of cabbage bottom foliage (6 plants per plot randomly). Visual infection was assessed three times during the trial at 7 days after each application. Area under the disease progress curve (AUDPC) was calculated for each plot using the sets of recorded severity data. Relative AUDPC (% control based on AUDPC) was calculated as percent of the nontreated control.

For `COc1ccnc(C(=O)N[C@@H](C)C(=O)O[C@@H](C)C(c2ccc(F)cc2)c2ccc(F)cc2)c1OC(C)=O` [Compound I, (S)-1,1-bis(4-fluorophenyl)propan-2-yl (3-acetoxy-4-methoxypicolinoyl)-L-alaninate], the “Percent control based on AUDPC, SCLESC 2 DP” value (Sclerotinia sclerotiorum; 50 g ai/ha) was “B (51-75)”, the “Percent control based on AUDPC, SCLESC 2 DP” value (Sclerotinia sclerotiorum; 100 g ai/ha) was “A (76-100)” and the “Percent control based on AUDPC, SCLESC 2 DP” value (Sclerotinia sclerotiorum; 150 g ai/ha) was “A (76-100)”. The “Percent disease control on tomato leaves, Trial 2, 5% EC” value (Alternaria solani; 100 g ai/ha) was “A (76-100)”, the “Percent disease control on tomato leaves, Trial 2, 10% SC” value (Alternaria solani; 100 g ai/ha) was “A (76-100)” and the “Percent disease control on tomato leaves, Trial 2, 5% EC” value (Alternaria solani; 200 g ai/ha) was “A (76-100)”. For the same compound, the “Percent disease control on tomato leaves, Trial 2, 10% SC” value (Alternaria solani; 200 g ai/ha) was “A (76-100)”, the “Percent Control of COLLCA (AUDPC)” value (Colletotrichum coccodes; Compound I 50 g/ha, Agnique BP420, 200 mL/ha) was 67% and the “Percent Control of COLLCA (AUDPC)” value (Colletotrichum coccodes; Compound I 50 g/ha, MSO, 100 g/ha) was 46.0%. For the same compound, the “Percent Control of COLLCA (AUDPC)” value (Colletotrichum coccodes; Compound I 75 g/ha, Agnique BP420, 2300 mL/ha) was 91.1%, the “Percent Control of COLLCA (AUDPC)” value (Colletotrichum coccodes; Compound I 75 g/ha, MSO, 150 g/ha) was 75.5% and the “Percent Control of COLLCA (AUDPC)” value (Colletotrichum coccodes; Compound I 100 g/ha, Adsee C80W 80%, 250 g/ha) was 57.3%. For the same compound, the “Percent Control of COLLCA (AUDPC)” value (Colletotrichum coccodes; Compound I 100 g/ha, Agnique BP420, 400 mL/ha) was 91.0%, the “Percent Control of COLLCA (AUDPC)” value (Colletotrichum coccodes; Compound I 100 g/ha, MSO, 200 g/ha) was 92.6% and the “Percent Control of COLLCA (AUDPC)” value (Colletotrichum coccodes; Compound I 150 g/ha, Agnique BP420, 600 mL/ha) was 95.7%. For the same compound, the “Percent Control of COLLCA (AUDPC)” value (Colletotrichum coccodes; Compound I 150 g/ha, MSO, 300 g/ha) was 95.3%, the “Percent control based on AUDPC, ALTEBI 2 DP” value (Alternaria brassicicola; 50 g ai/ha) was “C (26-50)” and the “Percent control based on AUDPC, ALTEBI 2 DP” value (Alternaria brassicicola; 100 g ai/ha) was “B (51-75)”. For the same compound, the “Percent control based on AUDPC, ALTEBI 2 DP” value (Alternaria brassicicola; 150 g ai/ha) was “B (51-75)”.
